Measurements from patent US8153683B2, “Methods of treatment using a prodrug of an excitatory amino acid” (Eli Lilly and Company, priority 2002, dated 2012).

Assay: In Vivo Exposure as Measured by Rat Plasma Concentration
Conditions: Fischer 344 male rats, sum of the concentrations at 0.5 and 1 hour or at 1 and 3 hour, LC/MS/MS
Method: To study the in vivo exposure of compounds of Formula II following oral dosing of compounds of Formula I in comparison to compounds of Formula II, studies measuring the plasma concentrations of the respective compound of Formula II in rats are performed. Mature Fischer 344 male rats (190-270 gram) are obtained from Harlan Sprague-Dawley, Cumberland, Ind., USA, and acclimated in the study housing for 3 days. […] Blood samples are collected through orbital sinus or cardiac puncture (last time point) at 0.5 and 1 hour or, alternatively, at 1 and 3 hours. Plasma samples are stored at −20° C. in the presence of phenylmethylsulfonyl fluoride, a protease inhibitor, prior to analysis. Plasma samples and internal standard compounds are pretreated by solid phase extraction (SAX support, methanol/water/dilute acetic acid).
As shown in Tables 1A and 1B below, the plasma concentrations (ng/ml) of the respective compound of Formula II for each test compound are determined by LC/MS/MS and are presented as a sum of the concentrations at the 0.5 and 1 hour or, alternatively, at the 1 and 3 hour sample time points.

Rat Exposure (ng/ml of (1R,4S,5S,6S)-4-(2′S-Aminopropionyl)amino-]-2,2-dioxo-2λ^6-thia-bicyclo[3.1.0.]hexane-4,6-dicarboxylic acid hydrochloride) (following 5 mg/kg p.o.)	Rat Exposure (ng/ml of (1R,2S,4R,5R,6R)-2-(2′S-Aminopropionyl)amino-4-fluorobicyclo[3.1.0]hexane-2,6-dicarboxylic acid hydrochloride) (following 10 mg/kg p.o.)	SMILES	Rat Exposure (ng/ml of (1R,2S,4R,5R,6R)-2-(2′S-Aminopropionyl)amino-4-fluorobicyclo[3.1.0]hexane-2,6-dicarboxylic acid hydrochloride) (following 5 mg/kg p.o.)
		C[C@H](N)C(=O)N[C@@]1(C(=O)O)C[C@@H](F)[C@H]2[C@H](C(=O)O)[C@H]21.Cl [Example 14, (1R,2S,4R,5R,6R)-2-(2′S-Amino-propionyl)amino-4-fluorobicyclo[3.1.0]hexane-2,6-dicarboxylic acid hydrochloride]	5271 ng/ml (following 5 mg/kg p.o.)
1521 ng/ml (following 5 mg/kg p.o.)		N[C@@]1(C(=O)O)CS(=O)(=O)[C@H]2[C@H](C(=O)O)[C@H]21 [Non-prodrug form of Example 1, (1R,4S,5S,6S)-4-Amino-2,2-dioxo-2λ^6-thia-bicyclo[3.1.0]hexane-4,6-dicarboxylic acid]	
	1342 ng/ml (following 10 mg/kg p.o.)	N[C@@]1(C(=O)O)C[C@@H](F)[C@H]2[C@H](C(=O)O)[C@H]21 [Non-prodrug form of Example 14, 1R,2S,4R,5R,6R-2-amino-4-fluorobicyclo[3.1.0]hexane-2,6-dicarboxylic acid]	1162 ng/ml (following 5 mg/kg p.o.)
